Experimental data reported in patent publication EP3771713A1 (priority 2019, dated 2021).
“Also recorded” adds a separate entry of the source.

Legend:
HT-22 cells = assay type: cell-based, murine
hAChE = hAChE (Homo sapiens, UniProt P22303); assay: biochemical; assay type: biochemical; settings: hAChE recombinant expressed
Aβ42 = Aβ42 (Homo sapiens, UniProt P05067); assay: Aβ42 self-aggregation, thioflavin-T fluorescence assay; assay type: biochemical
hCB2R = biological target: T1, hCB2R (Homo sapiens, UniProt P34972); assay type: cell-based
T1 construct: expressed in transfected cells; host or cells: HEK cells stably expressing hCB2R
T1 sequence (P34972 whole entry): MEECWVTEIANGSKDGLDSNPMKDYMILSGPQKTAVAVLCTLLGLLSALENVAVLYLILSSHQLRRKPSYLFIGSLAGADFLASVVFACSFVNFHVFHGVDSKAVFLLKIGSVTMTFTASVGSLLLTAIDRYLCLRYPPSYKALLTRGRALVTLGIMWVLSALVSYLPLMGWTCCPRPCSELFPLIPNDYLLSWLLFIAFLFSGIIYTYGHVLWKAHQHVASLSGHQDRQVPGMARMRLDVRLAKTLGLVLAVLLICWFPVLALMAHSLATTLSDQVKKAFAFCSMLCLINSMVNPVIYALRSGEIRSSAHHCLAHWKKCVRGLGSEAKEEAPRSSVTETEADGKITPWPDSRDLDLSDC

[1] = test system: Aβ25-35-induced learning impairments in mice; settings: mouse, ip
[2] = biological target: hAChE-induced Aβ40 aggregation (Homo sapiens, UniProt P22303); assay: biochemical; assay type: biochemical
Chain of hAChE-induced Aβ40 aggregation (P22303 32-614): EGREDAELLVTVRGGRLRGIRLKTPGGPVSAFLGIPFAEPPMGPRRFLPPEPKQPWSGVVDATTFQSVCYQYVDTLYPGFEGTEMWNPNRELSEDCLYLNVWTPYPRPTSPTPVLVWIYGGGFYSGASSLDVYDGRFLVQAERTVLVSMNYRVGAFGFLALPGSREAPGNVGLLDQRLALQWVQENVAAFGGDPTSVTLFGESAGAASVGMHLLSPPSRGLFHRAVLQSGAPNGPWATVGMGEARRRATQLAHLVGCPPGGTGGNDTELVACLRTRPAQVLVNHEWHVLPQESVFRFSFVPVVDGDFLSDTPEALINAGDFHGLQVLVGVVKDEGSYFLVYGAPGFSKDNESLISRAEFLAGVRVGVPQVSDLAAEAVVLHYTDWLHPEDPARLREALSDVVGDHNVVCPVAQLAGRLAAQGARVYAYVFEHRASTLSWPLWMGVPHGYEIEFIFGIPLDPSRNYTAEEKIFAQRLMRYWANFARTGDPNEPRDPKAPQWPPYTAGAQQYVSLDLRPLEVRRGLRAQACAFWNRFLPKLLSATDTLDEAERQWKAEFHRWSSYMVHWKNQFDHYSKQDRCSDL

hBChE = hBChE (Homo sapiens, UniProt P06276); assay: biochemical; assay type: biochemical
Chain of hBChE (P06276 29-602): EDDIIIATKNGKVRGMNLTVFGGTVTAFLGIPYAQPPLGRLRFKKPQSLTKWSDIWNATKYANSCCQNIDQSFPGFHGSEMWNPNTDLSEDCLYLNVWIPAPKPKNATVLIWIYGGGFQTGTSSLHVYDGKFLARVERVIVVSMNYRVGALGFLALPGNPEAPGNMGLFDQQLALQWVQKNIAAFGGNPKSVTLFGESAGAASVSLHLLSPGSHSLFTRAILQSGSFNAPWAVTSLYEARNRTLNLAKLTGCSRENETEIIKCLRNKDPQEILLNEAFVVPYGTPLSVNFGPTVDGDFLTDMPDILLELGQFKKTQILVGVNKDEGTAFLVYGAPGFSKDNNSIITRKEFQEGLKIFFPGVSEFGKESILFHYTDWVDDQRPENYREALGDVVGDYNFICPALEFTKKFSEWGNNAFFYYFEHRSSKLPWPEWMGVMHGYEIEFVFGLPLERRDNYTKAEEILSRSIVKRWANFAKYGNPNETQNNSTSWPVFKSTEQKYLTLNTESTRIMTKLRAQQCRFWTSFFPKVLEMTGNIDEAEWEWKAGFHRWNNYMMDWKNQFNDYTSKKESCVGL

eeAChE = eeAChE (Electrophorus electricus, UniProt O42275); assay: biochemical; settings: eeAChE from electric eel; read-out: IC50 AChE (eeAChE)
Chain of eeAChE (O42275 24-633): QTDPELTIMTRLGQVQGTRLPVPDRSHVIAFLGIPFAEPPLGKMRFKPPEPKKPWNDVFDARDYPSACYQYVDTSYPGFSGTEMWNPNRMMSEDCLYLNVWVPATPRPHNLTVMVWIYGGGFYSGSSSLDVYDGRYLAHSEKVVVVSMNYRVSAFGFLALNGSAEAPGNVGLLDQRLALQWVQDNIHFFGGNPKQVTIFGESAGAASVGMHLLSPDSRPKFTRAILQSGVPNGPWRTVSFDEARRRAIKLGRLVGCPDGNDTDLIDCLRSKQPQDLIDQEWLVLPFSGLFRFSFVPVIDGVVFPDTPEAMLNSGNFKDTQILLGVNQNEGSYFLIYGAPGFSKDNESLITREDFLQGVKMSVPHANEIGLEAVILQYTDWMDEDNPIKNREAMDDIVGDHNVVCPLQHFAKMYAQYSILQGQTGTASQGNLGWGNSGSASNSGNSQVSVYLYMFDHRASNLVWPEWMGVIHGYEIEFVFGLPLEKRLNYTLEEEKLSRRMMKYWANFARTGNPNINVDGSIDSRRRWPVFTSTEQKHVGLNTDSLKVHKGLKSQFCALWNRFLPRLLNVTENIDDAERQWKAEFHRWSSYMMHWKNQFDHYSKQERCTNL

[3] = test system: murine microglial cell line N9; assay: Microglia activation: LPS-activated N9 cells, M1/M2 markers (Griess reaction, western blot); assay type: cell-based
hCB1R = biological target: T2, hCB1R (Homo sapiens, UniProt P21554); assay type: binding
T2 construct: expressed in transfected cells; host or cells: CHO cells stably expressing hCB1R
T2 sequence (P21554 whole entry): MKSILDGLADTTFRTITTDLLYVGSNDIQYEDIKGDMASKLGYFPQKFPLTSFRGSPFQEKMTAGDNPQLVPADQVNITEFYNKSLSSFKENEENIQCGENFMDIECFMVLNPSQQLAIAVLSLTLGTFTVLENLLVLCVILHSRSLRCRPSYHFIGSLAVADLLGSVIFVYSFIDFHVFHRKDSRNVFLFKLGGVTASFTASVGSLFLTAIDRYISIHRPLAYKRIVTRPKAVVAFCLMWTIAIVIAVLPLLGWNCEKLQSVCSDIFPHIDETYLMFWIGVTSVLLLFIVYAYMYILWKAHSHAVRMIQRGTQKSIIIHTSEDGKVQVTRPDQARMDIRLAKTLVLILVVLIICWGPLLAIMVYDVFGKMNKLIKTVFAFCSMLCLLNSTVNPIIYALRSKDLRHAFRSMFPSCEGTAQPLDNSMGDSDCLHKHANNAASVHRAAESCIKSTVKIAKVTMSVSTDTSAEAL

[4] = N9 cells, 100 ng/mL LPS, 1-5 µM compound, 24 h, M1 marker
[5] = N9 cells, 100 ng/mL LPS, 1-5 µM compound, 24 h, M2 marker

Chain of Aβ42 (P05067 672-713): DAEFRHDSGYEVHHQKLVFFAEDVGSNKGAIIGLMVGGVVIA
Chain of hAChE (P22303 32-614): as the sequence (P22303 32-614) above

## CCOc1ccc(Cc2nc3cc(C(=O)N(CC)CC)ccc3n2CCCCCCNc2c3c(nc4ccccc24)CCCC3)cc1 [compound 3e, 2-(4-Ethoxybenzyl)-N,N-diethyl-1-(6-((1,2,3,4-tetrahydroacridin-9-yl)amino)hexyl)-1H-benzo[d]imidazole-5-carboxamide]
HT-22 cells
  neuroprotective behavior (in words): low neuroprotective behavior; also recorded: showed neuroprotection
hAChE
  pIC50 ± SD AChE (hAChE): 7.1 ± 0.1
hAChE; read-out: IC50 AChE (hAChE)
  IC50: 86.1 nM
Aβ42; 50 µM inhibitor and 50 µM Aβ42, mean ± SEM, read-out: % inhibition Aβ aggregation self-induced
  inhibition at 50 µM: 81.5 ± 2%
Aβ42; 1/1 ratio with Aβ42
  inhibition of Aβ42 self-aggregation (in words): pronounced inhibition; also recorded: strongly inhibited
hCB2R
  MIF gene expression: reduced
  STAT-3 gene expression: reduced
  behavior at the hCB2R: maintained their agonist behavior
[1]; in vivo
  dose that significantly prevented Aβ25-35-induced learning impairments: 0.3 mg/kg
  most effective dose (completely prevented Aβ25-35 impairments in both tests): 0.3 mg/kg
[1]
  dose given for the high in vivo efficacy (conclusion): 0.1 mg/kg
[2]
  inhibition of AChE-induced Aβ40 aggregation (in words): pronounced inhibition; also recorded: significantly reduce
[2]; [I] = 100 µM, Aβ40/hAChE ratio 100/1, mean ± SEM, read-out: % inhibition Aβ aggregation AChE-induced
  inhibition at 100 µM: 62.9 ± 5.4%
hBChE; compared to tacrine
  inhibitory potency towards hBChE compared to tacrine: increased inhibitory potency
hBChE; hBChE from human serum, means of at least three determinations, read-out: IC50 hBChE
  IC50: 1.9 nM
eeAChE
  IC50: 0.5 nM
[3]; LPS-activated microglial cells
  immunomodulatory effect: immunomodulatory effect
[3]; N9 cells, 100 ng/mL LPS, 1-5 µM compound, 24 h
  NO release / nitrite accumulation: reduced; also recorded: strongly reduces
[3]; [4]
  IL1β release: significantly decrease; also recorded: strongly reduces
  iNOS expression: significantly decrease; also recorded: strongly reduces
[3]; [5]
  TGFβ2 expression: not reduced; also recorded: no parallel change
  TREM2 expression: not reduced; also recorded: no parallel change
hCB1R
  [^3H]CP 55,940 displ. @10 µM hCB1R: 17%
